According to patent US20260123631A1, “NATURAL PORPHIN SALT AND USE THEREOF AS PLANT GROWTH REGULATOR AND PLANT IMMUNITY INDUCER” (NANJING BOSTEC BIOLOGICAL ENGINEERING CO., LTD, priority 2022, published 2026):

Assays:
[1] = Stability of sample solutions in the dark/under light; assay type: physicochemical; conditions: under light 30,000 lux, salts in water, acidic reference in 30% to 50% ethanol
Description: Determination: An appropriate amount of a salt sample was taken, dissolved with water, and diluted to prepare a test solution with a concentration of about 10 ppm. An acidic reference substance (extremely-insoluble in water) was prepared with a 30% to 50% ethanol aqueous solution into a test solution with a concentration of about 10 ppm.
Each test solution was scanned by an ultraviolet spectrophotometer (at 0 h) for absorbance in a range of 200 nm to 800 nm immediately after being prepared. Then a test solution of each sample was divided into two parts. One part was placed at room temperature of 25° C. in the dark, and the other part was placed under light with a light intensity of 30,000 lux. At 1 h, 2 h, and 3 h, a solution sample was collected and scanned for absorbance respectively.
An absorbance value of a maximum absorption peak at 0 h (starting) of each test solution was set as a relative content of 100%, and a ratio of an absorbance value at each time point to the absorbance value at 0 h was calculated to determine a relative content, %.

[2] = Water solubility of the prepared salts; assay type: physicochemical

Compound | Relative content ([1]; 1 h) [%] | Relative content ([1]; 2 h) [%] | Relative content ([1]; 3 h) [%] | solubility in water [2]
sodium iron hydroxychlorophyllin [Example 72] | 60.39 | 52.14 | 47.32 | easily soluble
ferrous hydroxyhematin [Example 67] | – | – | – | slightly soluble
C=CC1=C(C)c2cc3[n-]c(cc4nc(cc5[n-]c(cc1n2)c(C)c5C=C)C(C)=C4CCC(=O)O)c(CCC(=O)O)c3C.[Zn+2] [Example 8, zinc protoporphyrin] | 90.95 | 89.52 | 86.51 | slightly soluble
C=CC1=C(C)c2cc3[nH]c(cc4nc(cc5[nH]c(cc1n2)c(C)c5C=C)C(C)=C4CCC(=O)[O-])c(CCC(=O)[O-])c3C.[Ca+2] [Example 4, calcium protoporphyrin] | 90.07 | 87.11 | 85.89 | soluble
zinc iron hydroxychlorophyllin [Example 79] | 73.29 | 69.57 | 65.55 | slightly soluble
ferric copper chlorophyllin [Example 49] | – | – | – | slightly soluble
ferric iron chlorophyllin [Example 33] | – | – | – | slightly soluble
magnesium hydroxyhematin [Example 64] | 96.74 | 93.78 | 93.33 | –
potassium hydroxyhematin [Example 62] | 77.06 | 75.72 | 73.04 | easily soluble
copper iron hydroxychlorophyllin [Example 80] | 79.89 | 76.11 | 73.21 | slightly soluble
C=CC1=C(C)c2cc3[nH]c(cc4nc(cc5[nH]c(cc1n2)c(C)c5C=C)C(C)=C4CCC(=O)O)c(CCC(=O)O)c3C.N.N [Example 2, ammonium protoporphyrin] | 60.29 | 48.76 | 45.99 | easily soluble
ferrous zinc chlorophyllin [Example 38] | – | – | – | slightly soluble
ferrous chlorin [Example 57] | – | – | – | slightly soluble
ferric iron chlorin [Example 26] | – | – | – | slightly soluble
manganese hydroxyhematin [Example 66] | 87.45 | 83.77 | 80.00 | slightly soluble
ferrous iron chlorin [Example 25] | – | – | – | slightly soluble
ferric chlorin [Example 58] | – | – | – | slightly soluble
C=CC1=C(C)c2cc3[n-]c(cc4nc(cc5[n-]c(cc1n2)c(C)c5C=C)C(C)=C4CCC(=O)[O-])c(CCC(=O)[O-])c3C.[Cl-].[Fe+3].[Mn+2] [Example 15, manganese chlorhematin] | – | 82.32 | 81.07 | slightly soluble
C=CC1=C(C)c2cc3[n-]c(cc4nc(cc5[n-]c(cc1n2)c(C)c5CCC(=O)[O-])C(CCC(=O)[O-])=C4C)c(C)c3C=C.[Cl-].[Cu+2].[Fe+3] [Example 19, copper chlorhematin] | 95.23 | 95.03 | 93.04 | slightly soluble
ferric hydroxyhematin [Example 68] | – | – | – | slightly soluble
ferric iron hydroxychlorophyllin [Example 77] | – | – | – | slightly soluble

Compound | Relative content ([1]; 1 h) [%] | Relative content ([1]; 2 h) [%] | Relative content ([1]; 3 h) [%] | solubility in water [2]
magnesium protoporphyrin [Example 3] | 93.32 | 90.98 | 89.65 | soluble
C=CC1=C(C)c2cc3[n-]c(cc4nc(cc5[n-]c(cc1n2)c(C)c5C=C)C(C)=C4CCC(=O)[O-])c(CCC(=O)[O-])c3C.[Cl-].[Fe+3].[NH4+].[NH4+] [Example 12, ammonium chlorhematin] | 73.07 | 67.80 | 66.25 | easily soluble
C=CC1=C(C)c2cc3[n-]c(cc4nc(cc5[n-]c(cc1n2)c(C)c5C=C)C(C)=C4CCC(=O)[O-])c(CCC(=O)[O-])c3C.[Ca+2].[Cl-].[Fe+3] [Example 14, calcium chlorhematin] | 82.53 | 81.78 | 81.97 | soluble
manganese iron hydroxychlorophyllin [Example 78] | 75.51 | 70.44 | 68.12 | slightly soluble
ferrous iron chlorophyllin [Example 32] | – | – | – | slightly soluble
C=CC1=C(C)c2cc3[nH]c(cc4nc(cc5[nH]c(cc1n2)c(C)c5C=C)C(C)=C4CCC(=O)[O-])c(CCC(=O)[O-])c3C.[Mn+2] [Example 5, manganese protoporphyrin] | 92.57 | 90.09 | 88.85 | soluble
potassium iron hydroxychlorophyllin [Example 71] | 62.96 | 54.32 | 49.38 | easily soluble
ferric zinc chlorophyllin [Example 39] | – | – | – | slightly soluble
C=CC1=C(C)c2cc3[n-]c(cc4nc(cc5[n-]c(cc1n2)c(C)c5CCC(=O)[O-])C(CCC(=O)[O-])=C4C)c(C)c3C=C.[Cl-].[Fe+2].[Fe+3] [Example 16, ferrous chlorhematin] | – | – | – | slightly soluble
magnesium iron hydroxychlorophyllin [Example 74] | 80.48 | 67.53 | 67.13 | –
zinc hydroxyhematin [Example 69] | 94.32 | 93.24 | 90.85 | slightly soluble
ferrous copper chlorophyllin [Example 48] | – | – | – | slightly soluble
C=CC1=C(C)c2cc3[nH]c(cc4nc(cc5[nH]c(cc1n2)c(C)c5C=C)C(C)=C4CCC(=O)[O-])c(CCC(=O)[O-])c3C.[Cu+2] [Example 9, copper protoporphyrin] | 96.42 | 95.56 | 94.88 | slightly soluble
C=CC1=C(C)c2cc3[n-]c(cc4nc(cc5[n-]c(cc1n2)c(C)c5CCC(=O)[O-])C(CCC(=O)[O-])=C4C)c(C)c3C=C.[Cl-].[Fe+3].[Zn+2] [Example 18, zinc chlorhematin] | 93.45 | 93.10 | 92.74 | slightly soluble
C=CC1=C(C)c2cc3[n-]c(cc4[n-]c(cc5nc(cc1n2)C(C)=C5C=C)c(C)c4CCC(=O)O)c(CCC(=O)O)c3C.[Fe+2] [Example 6, ferrous protoporphyrin] | – | – | – | soluble
ferric protoporphyrin [Example 7] | – | – | – | slightly soluble
ferrous iron hydroxychlorophyllin [Example 76] | – | – | – | slightly soluble
copper hydroxyhematin [Example 70] | 96.20 | 95.71 | 92.81 | slightly soluble
ferric chlorhematin [Example 17] | – | – | – | slightly soluble
C=CC1=C(C)c2cc3[n-]c(cc4nc(cc5[n-]c(cc1n2)c(C)c5C=C)C(C)=C4CCC(=O)[O-])c(CCC(=O)[O-])c3C.[Fe+3].[Na+].[Na+].[OH-] [Sodium hydroxyhematin, sodium hydroxyhematin, reference compound] | 70.21 | 62.33 | 57.03 | easily soluble
